Reference: patent US20170143701A1, “CARBOHYDRATE METABOLISM-AMELIORATING AGENT” (SUNTORY HOLDINGS LIMITED, priority 2014, published 2017)

Key:
NCI-H716 cells = experiment: In vitro GLP-1 secretion-accelerating action: amount of active GLP-1 secreted (ELISA); format: cell-based; conditions: 1 hour; for Significant difference (p < 0.05) vs control group, amount of active GLP-1 secreted: 10 mM, Student's t-test; for Amount of active GLP-1 secreted (relative value to control group as 100), average value: cyclic dipeptide 10 mM with 10 μM Sitagliptin phosphate, group with no cyclic dipeptide = 100
Experimental: Among the cyclic dipeptides, 92 highly water-soluble cyclic dipeptides were used in the following experiment. In each well of a Poly-L-Lysine 96-well plate, NCI-H716 cells suspended in 100 μL of a DMEM (with 10% FBS, 2 mM glutamine, and 1% antibiotics added in advance) were seeded at 0.5×10^5 cells/well, and cultured in a CO2 incubator (manufactured by ESPEC CORP.) for 48 hours. After washing with PBS(+), 100 μL of a PBS(+) solution with each cyclic dipeptide at a final concentration of 10 mM and 10 μM of Sitagliptin phosphate added therein was added to the cells. After 1 hour, the resultant solution was recovered, and the amount of active GLP-1 in the solution was measured by using the ELISA kit. In the analysis, the amount of active GLP-1 for a group with no cyclic dipeptide added was defined as 100, and relative values thereto were used.

C57/BL6J mice = experiment: In vivo plasma GLP-1 level-increasing action: plasma active GLP-1 level (ELISA) after oral administration; conditions: 10 mg/kg oral; for Significant difference (p < 0.05) vs control group, plasma active GLP-1 level: 30 minutes, Student's t-test; for Plasma active GLP-1 level (relative value to control group as 100), average value: blood 30 minutes after, 0.5% CMC-Na group = 100
Experimental: Seven-week-old male C57/BL6J mice were purchased from CLEA Japan, Inc. for use, and they were subjected to an experiment after 1 week of a habituation period.
After the habituation period, the mice were subjected to 5.5 hours of food deprivation and 2 hours of water deprivation. Thereafter, a cyclic dipeptide dissolved or suspended in a 0.5% CMC-Na aqueous solution in 10 mg/kg was orally administered to each mouse forcibly. After 30 minutes, the blood was collected from the abdominal vena cava under anesthesia, and 1 μL of heparin sodium and 1 μL of 10 mM Sitagliptin phosphate were added to each collected blood, which was then subjected to centrifugation at 8000 rpm for 10 minutes to recover the plasma, and the plasma active GLP-1 level was measured by using the ELISA kit. In the analysis, the active GLP-1 level for a group administered with 0.5% CMC-Na aqueous solution was defined as 100, and relative values thereto were used.

Question: What does the source list for `C[C@H](O)[C@@H]1NC(=O)[C@H](CC(N)=O)NC1=O` [compound 166, Cyclo(Asn-Thr)]?
Answer: Significant difference (p < 0.05) vs control group, amount of active GLP-1 secreted (NCI-H716 cells; Table 3, Experiment 3): No; Amount of active GLP-1 secreted (relative value to control group as 100), average value (NCI-H716 cells; Table 3, Experiment 3): 149

Question: Which “Significant difference (p < 0.05) vs control group, amount of active GLP-1 secreted” value (NCI-H716 cells; Table 3, Experiment 3) does the source give for `NC(=O)C[C@@H]1NC(=O)[C@H](Cc2cnc[nH]2)NC1=O` [compound 111, cyclo-asparaginyl-histidine] here?
Answer: Yes

Question: And the “Amount of active GLP-1 secreted (relative value to control group as 100), average value” (NCI-H716 cells; Table 3, Experiment 3)?
Answer: 341

Question: For `CC(C)[C@@H]1NC(=O)[C@@H]2CCCN2C1=O` [compound 10, Cyclo(Val-Pro)], which “Significant difference (p < 0.05) vs control group, amount of active GLP-1 secreted” value (NCI-H716 cells; Table 1, Experiment 1) is on record?
Answer: No

Question: And the “Amount of active GLP-1 secreted (relative value to control group as 100), average value” (NCI-H716 cells; Table 1, Experiment 1)?
Answer: 95

Question: How did the “Significant difference (p < 0.05) vs control group, plasma active GLP-1 level” value (C57/BL6J mice; Table 14, Experiment 9) turn out when `CC[C@H](C)[C@@H]1NC(=O)[C@H](CO)NC1=O` [compound 133, cyclo-isoleucyl-serine] was run?
Answer: Yes

Question: With `CSCCC1NC(=O)C(CCSC)NC1=O` (stereo not drawn) [compound 12, Cyclo(Met-Met)] as the compound, how does the “Significant difference (p < 0.05) vs control group, plasma active GLP-1 level” value (C57/BL6J mice; Table 9, Experiment 4) read?
Answer: No

Question: And the “Plasma active GLP-1 level (relative value to control group as 100), average value” (C57/BL6J mice; Table 9, Experiment 4)?
Answer: 110

Question: How did the “Significant difference (p < 0.05) vs control group, plasma active GLP-1 level” value (C57/BL6J mice; Table 15, Experiment 10) turn out when `CC(C)CC1NC(=O)C(CCC(N)=O)NC1=O` (stereo not drawn) [compound 152, cyclo-glutaminyl-leucine] was run?
Answer: Yes

Question: And the “Plasma active GLP-1 level (relative value to control group as 100), average value” (C57/BL6J mice; Table 15, Experiment 10)?
Answer: 282

Question: Which “Significant difference (p < 0.05) vs control group, plasma active GLP-1 level” value (C57/BL6J mice; Table 11, Experiment 6) does the source give for `CC1NC(=O)C(Cc2ccc(O)cc2)NC1=O` (stereo not drawn) [compound 86, Cyclo(Ala-Tyr)] here?
Answer: No

Question: And the “Plasma active GLP-1 level (relative value to control group as 100), average value” (C57/BL6J mice; Table 11, Experiment 6)?
Answer: 90

Question: For `O=C1N[C@@H](Cc2ccccc2)C(=O)N[C@H]1Cc1ccccc1` [compound 17, cyclo-phenylalanyl-phenylalanine], which “Significant difference (p < 0.05) vs control group, plasma active GLP-1 level” value (C57/BL6J mice; Table 8, Experiment 3) is on record?
Answer: Yes

Question: And the “Plasma active GLP-1 level (relative value to control group as 100), average value” (C57/BL6J mice; Table 8, Experiment 3)?
Answer: 203

Question: Which results are given for `CCC(C)C1NC(=O)C(Cc2ccc(O)cc2)NC1=O` (stereo not drawn) [compound 89, Cyclo(Ile-Tyr)]?
Answer: Significant difference (p < 0.05) vs control group, plasma active GLP-1 level (C57/BL6J mice; Table 12, Experiment 7): No; Plasma active GLP-1 level (relative value to control group as 100), average value (C57/BL6J mice; Table 12, Experiment 7): 222

Question: For `CC[C@H](C)[C@@H]1NC(=O)[C@H](Cc2cnc[nH]2)NC1=O` [compound 148, cyclo-isoleucyl-histidine], which “Significant difference (p < 0.05) vs control group, plasma active GLP-1 level” value (C57/BL6J mice; Table 15, Experiment 10) is on record?
Answer: Yes

Question: What about the “Plasma active GLP-1 level (relative value to control group as 100), average value” (C57/BL6J mice; Table 15, Experiment 10) of the same compound?
Answer: 259

Question: With `NC(=O)CC[C@@H]1NC(=O)[C@H](Cc2c[nH]c3ccccc23)NC1=O` [compound 82, Cyclo(Trp-Gln)] as the compound, how does the “Significant difference (p < 0.05) vs control group, plasma active GLP-1 level” value (C57/BL6J mice; Table 11, Experiment 6) read?
Answer: No

Question: What about the “Plasma active GLP-1 level (relative value to control group as 100), average value” (C57/BL6J mice; Table 11, Experiment 6) of the same compound?
Answer: 90

Question: Which results are given for `CC(C)C[C@@H]1NC(=O)[C@H](Cc2c[nH]c3ccccc23)NC1=O` [compound 39, cyclo-leucyl-tryptophan]?
Answer: Significant difference (p < 0.05) vs control group, plasma active GLP-1 level (C57/BL6J mice; Table 8, Experiment 3): Yes; Plasma active GLP-1 level (relative value to control group as 100), average value (C57/BL6J mice; Table 8, Experiment 3): 229

Question: `NC(=O)CC[C@@H]1NC(=O)[C@H](Cc2ccc(O)cc2)NC1=O` [compound 93, cyclo-glutaminyl-tyrosine] was tested. Which “Significant difference (p < 0.05) vs control group, plasma active GLP-1 level” value (C57/BL6J mice; Table 12, Experiment 7) did it give?
Answer: Yes

Question: And the “Plasma active GLP-1 level (relative value to control group as 100), average value” (C57/BL6J mice; Table 12, Experiment 7)?
Answer: 344

Question: Which “Significant difference (p < 0.05) vs control group, plasma active GLP-1 level” value (C57/BL6J mice; Table 11, Experiment 6) does the source give for `CCC(C)C1NC(=O)C(CC(C)C)NC1=O` (stereo not drawn) [compound 71, Cyclo(Ile-Leu)] here?
Answer: No

Question: And the “Plasma active GLP-1 level (relative value to control group as 100), average value” (C57/BL6J mice; Table 11, Experiment 6)?
Answer: 79

Question: With `CC(C)C1NC(=O)C(CO)NC1=O` (stereo not drawn) [compound 132, cyclo-valyl-serine] as the compound, how does the “Significant difference (p < 0.05) vs control group, plasma active GLP-1 level” value (C57/BL6J mice; Table 14, Experiment 9) read?
Answer: Yes

Question: And the “Plasma active GLP-1 level (relative value to control group as 100), average value” (C57/BL6J mice; Table 14, Experiment 9)?
Answer: 129

Question: How did the “Significant difference (p < 0.05) vs control group, plasma active GLP-1 level” value (C57/BL6J mice; Table 13, Experiment 8) turn out when `CC(C)C[C@@H]1NC(=O)[C@H](Cc2cnc[nH]2)NC1=O` [compound 103, Cyclo(His-Leu)] was run?
Answer: No

Question: What about the “Plasma active GLP-1 level (relative value to control group as 100), average value” (C57/BL6J mice; Table 13, Experiment 8) of the same compound?
Answer: 94

Question: What does the source list for `CSCC[C@@H]1NC(=O)CNC1=O` [compound 127, cyclo-methionyl-glycine]?
Answer: Significant difference (p < 0.05) vs control group, plasma active GLP-1 level (C57/BL6J mice; Table 14, Experiment 9): Yes; Plasma active GLP-1 level (relative value to control group as 100), average value (C57/BL6J mice; Table 14, Experiment 9): 124
